The values that follow come from patent publication US8178552B2, “7-Azaindole derivatives and their use in the inhibition of c-Jun N-terminal kinase” (Eisai R&D Management Co., Ltd., priority 2008, dated 2012).

Test [1] has as its target JNK3 (Homo sapiens, UniProt P53779). In words: JNK3 SPA assay. The test is classed as biochemical. The settings on record: 3.33 μM ATP, GST-c-Jun substrate; read-out: IC50 against JNK3. A digest of the protocol:
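Radiometric SPA using GST-c-Jun with [γ-33P]ATP in 25 mM HEPES pH 7.5 and 10 mM Mg acetate; the substrate solution held 3.33 µM ATP (JNK2/3) or 2 µM ATP (JNK1). Reactions ran 30 min at room temperature and were stopped with glutathione SPA beads plus 40 mM ATP. IC50 is the concentration halving c-Jun phosphorylation versus control.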

Test [2] concerns c-Jun phosphorylation. In words: LPS-induced c-Jun phosphorylation in spleen of mice (HTRF). The format is in vivo, male C57/B16 mice. Particulars: Mus musculus, po; 20 mg/kg p.o. 30 min before LPS 10 mg/kg i.p.; 1 hour after LPS; versus vehicle-treated animals; read-out: Percentage reduction in the level of P-c-Jun in spleen. As to the method:
(§1) The studies were carried out in male C57/B16 mice. Compounds (20 mg/kg; p.o.) were administered 30 minutes before injection of lipopolysaccharide (LPS). LPS was administered intraperitoneally at a dose of 10 mg/kg. Animals were sacrificed 1 hour following LPS injection. Blood was collected into heparinized tubes for measurement of plasma TNFα levels and spleens were collected for the measurement of c-Jun phosphorylation. Plasma TNFα was measured using an ELISA kit purchased from R&D systems. Spleens were homogenised, extracted in high salt (250 mM NaCl) lysis buffer with phosphatase inhibitors and c-Jun phosphorylation was measured using HTRF. The suppressive effect of compounds was calculated as the percentage reduction of the TNFα level in plasma and P-c-Jun level in spleen as compared with the vehicle-treated animals.
For orientation: In TR-FRET formats the signal depends on donor and acceptor labels being close together.

The subject of test [3] is TNFα. In words: LPS-induced TNFα suppression in mice (plasma TNFα, ELISA). The test is classed as in vivo, male C57/B16 mice. The settings on record: Mus musculus, po; 20 mg/kg p.o. 30 min before LPS 10 mg/kg i.p.; 1 hour after LPS; versus vehicle-treated animals; read-out: Percentage reduction in the level of TNFα in plasma. How it is done:
as §1
In general terms: ELISA stands for enzyme-linked immunosorbent assay.

Chain of JNK3 (P53779 whole entry, species assumed): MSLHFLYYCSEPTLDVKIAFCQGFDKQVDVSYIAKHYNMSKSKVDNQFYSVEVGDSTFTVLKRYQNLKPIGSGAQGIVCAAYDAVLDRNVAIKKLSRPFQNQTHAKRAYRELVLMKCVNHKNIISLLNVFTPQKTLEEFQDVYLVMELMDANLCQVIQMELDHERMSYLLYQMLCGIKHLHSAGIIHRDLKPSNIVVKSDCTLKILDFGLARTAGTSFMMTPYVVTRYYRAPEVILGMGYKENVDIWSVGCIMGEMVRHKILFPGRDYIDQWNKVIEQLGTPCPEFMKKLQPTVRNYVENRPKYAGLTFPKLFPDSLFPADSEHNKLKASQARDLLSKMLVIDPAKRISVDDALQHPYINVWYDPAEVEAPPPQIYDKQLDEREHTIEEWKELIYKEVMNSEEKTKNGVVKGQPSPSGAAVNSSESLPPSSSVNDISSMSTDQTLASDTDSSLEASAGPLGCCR

In the case of `CN1CCN([C@H]2CC[C@@H](c3cnc4[nH]cc(-c5cnn(C)c5)c4c3)CC2)CC1` [Compound I-26, 3-(1-methyl-1H-pyrazol-4-yl)-5-((1s,4s)-4-(4-methylpiperazin-1-yl)cyclohexyl)-1H-pyrrolo[2,3-b]pyridine], the IC50 (as a rule, the midpoint of a concentration-inhibition curve) in test [1] turned out to be 94 nM. Moreover, the results for the inhibition in vivo at 20 mg/kg in test [2] and in test [3] were 16% and 71%, respectively. On to `Cn1cc(-c2c[nH]c3ncc(C4=CCCC4)cc23)cn1` [Compound I-10, 5-cyclopentenyl-3-(1-methyl-1H-pyrazol-4-yl)-1H-pyrrolo[2,3-b]pyridine], for which the IC50 in test [1] was determined as 17 nM. Further, the inhibition in vivo at 20 mg/kg was determined as 75% in test [2] and 62% in test [3]. As to `Cn1cc(-c2c[nH]c3ncc([C@H]4CC[C@H](N(C)C)CC4)cc23)cn1` [Compound I-71, (1r,4r)-N,N-dimethyl-4-(3-(1-methyl-1H-pyrazol-4-yl)-1H-pyrrolo[2,3-b]pyridin-5-yl)cyclohexanamine], the IC50 in test [1] was determined as 189 nM. For the same compound, the inhibition in vivo at 20 mg/kg in test [2] stood at 7%; in test [3], 86%. Taken in the same sequence, the figures for `Cn1cc(-c2c[nH]c3ncc([C@H]4CC[C@H](N5CCCOCC5)CC4)cc23)cn1` [Compound I-40, 4-((1r,4r)-4-(3-(1-methyl-1H-pyrazol-4-yl)-1H-pyrrolo[2,3-b]pyridin-5-yl)cyclohexyl)-1,4-oxazepane] were 129 nM, 35% and 61%. Taken in the same sequence, the figures for `Cn1cc(-c2c[nH]c3ncc(C4CCCCC4)cc23)cn1` [Compound I-16, 5-cyclohexyl-3-(1-methyl-1H-pyrazol-4-yl)-1H-pyrrolo[2,3-b]pyridine] were 40 nM, 20% and 45%.

In the case of `Cn1cc(-c2c[nH]c3ncc(C4C5CC6CC(C5)CC4C6)cc23)cn1` (stereo not drawn) [Compound I-154, 3-(1-Methyl-1H-pyrazol-4-yl)-5-tricyclo[3.3.1.1˜3,7˜]dec-2-yl-1H-pyrrolo[2,3-b]pyridine], the IC50 in test [1] came out at 62 nM. Further, the inhibition in vivo at 20 mg/kg was found to be 33% in test [2] and 60% in test [3]. Taken in the same sequence, the figures for `Cn1cc(-c2c[nH]c3ncc([C@H]4CC[C@H](N5CCCC5)CC4)cc23)cn1` [Compound I-24, 3-(1-methyl-1H-pyrazol-4-yl)-5-((1r,4r)-4-(pyrrolidin-1-yl)cyclohexyl)-1H-pyrrolo[2,3-b]pyridine] were 83 nM, 23% and 57%. Taken in the same sequence, the figures for `Cn1cc(-c2c[nH]c3ncc(C4=CC5CCC4C5)cc23)cn1` (stereo not drawn) [Compound I-136, 5-(bicyclo[2.2.1]hept-2-en-2-yl)-3-(1-methyl-1H-pyrazol-4-yl)-1H-pyrrolo[2,3-b]pyridine] were 76 nM, 42% and 87%. `Cn1cc(-c2c[nH]c3ncc([C@H]4CC[C@@H](N5CCCOCC5)CC4)cc23)cn1` [Compound I-39, 4-((1s,4s)-4-(3-(1-methyl-1H-pyrazol-4-yl)-1H-pyrrolo[2,3-b]pyridin-5-yl)cyclohexyl)-1,4-oxazepane]: the IC50 in test [1] worked out at 184 nM. In addition, the inhibition in vivo at 20 mg/kg in test [2] came to 10%; in test [3] it was 67%. In the case of `c1nn(CCN2CCOCC2)cc1-c1c[nH]c2ncc([C@H]3CC[C@@H](N4CCOCC4)CC3)cc12` [Compound I-58, 4-(2-(4-(5-((1s,4s)-4-morpholinocyclohexyl)-1H-pyrrolo[2,3-b]pyridin-3-yl)-1H-pyrazol-1-yl)ethyl)morpholine], the IC50 in test [1] is above 500 nM. The same measure, in the same setting: to `Cn1cc(-c2c[nH]c3ncc([C@H]4CC[C@H](C(=O)O)CC4)cc23)cn1` [Compound I-76, (1r,4r)-4-(3-(1-methyl-1H-pyrazol-4-yl)-1H-pyrrolo[2,3-b]pyridin-5-yl)cyclohexanecarboxylic acid] belongs 251 nM; to `CCN(CCOC)[C@H]1CC[C@H](c2cnc3[nH]cc(-c4cnn(C)c4)c3c2)CC1` [Compound I-123, (1r,4r)-N-ethyl-N-(2-methoxyethyl)-4-(3-(1-methyl-1H-pyrazol-4-yl)-1H-pyrrolo[2,3-b]pyridin-5-yl)cyclohexanamine], 323 nM; to `Cn1cc(-c2c[nH]c3ncc([C@H]4CC[C@@H](N5CC[C@@H](F)C5)CC4)cc23)cn1` [Compound I-53, 5-((1S,4s)-4-((R)-3-fluoropyrrolidin-1-yl)cyclohexyl)-3-(1-methyl-1H-pyrazol-4-yl)-1H-pyrrolo[2,3-b]pyridine], 182 nM. The same measure, in the same setting: to `CCCN(C)[C@H]1CC[C@@H](c2cnc3[nH]cc(-c4cnn(C)c4)c3c2)CC1` [Compound I-116, (1s,4s)-N-methyl-4-(3-(1-methyl-1H-pyrazol-4-yl)-1H-pyrrolo[2,3-b]pyridin-5-yl)-N-propylcyclohexanamine] belongs 309 nM; to `COCCN(C)[C@H]1CC[C@H](c2cnc3[nH]cc(-c4cnn(C)c4)c3c2)CC1` [Compound I-117, (1r,4r)-N-(2-methoxyethyl)-N-methyl-4-(3-(1-methyl-1H-pyrazol-4-yl)-1H-pyrrolo[2,3-b]pyridin-5-yl)cyclohexanamine], 288 nM; to `CN(C)[C@H]1CC[C@H](c2cnc3[nH]cc(-c4cnn(CCN5CCOCC5)c4)c3c2)CC1` [Compound I-60, (1r,4r)-N,N-dimethyl-4-(3-(1-(2-morpholinoethyl)-1H-pyrazol-4-yl)-1H-pyrrolo[2,3-b]pyridin-5-yl)cyclohexanamine], above 500 nM. For `Cn1cc(-c2c[nH]c3ncc(C4CCC(CN5CCOCC5)CC4)cc23)cn1` (mixture of isomers) [Compound I-73, 3-(1-Methyl-1H-pyrazol-4-yl)-5-(4-morpholin-4-ylmethyl-cyclohexyl)-1H-pyrrolo[2,3-b]pyridine], the IC50 in test [1] amounted to 74 nM.

Turning to `c1n[nH]cc1-c1c[nH]c2ncc([C@H]3CC[C@H](N4CCOCC4)CC3)cc12` [Compound I-79, 4-((1r,4r)-4-(3-(1H-pyrazol-4-yl)-1H-pyrrolo[2,3-b]pyridin-5-yl)cyclohexyl)morpholine], the IC50 in test [1] was determined as 117 nM. The same measure, in the same setting: to `CCN(CCO)C1CCC(c2cnc3[nH]cc(-c4cnn(C)c4)c3c2)CC1` (mixture of isomers) [Compound I-131, 2-(ethyl(4-(3-(1-methyl-1H-pyrazol-4-yl)-1H-pyrrolo[2,3-b]pyridin-5-yl)cyclohexyl)amino)ethanol] belongs 251 nM; to `CC(C)N[C@H]1CC[C@H](c2cnc3[nH]cc(-c4cnn(C)c4)c3c2)CC1` [Compound I-105, (1r,4r)-N-isopropyl-4-(3-(1-methyl-1H-pyrazol-4-yl)-1H-pyrrolo[2,3-b]pyridin-5-yl)cyclohexanamine], 320 nM.

In the case of `Cn1cc(-c2c[nH]c3ncc(C4=CCC(N5CCOCC5)CC4)cc23)cn1` (stereo not drawn) [Compound I-75, 3-(1-Methyl-1H-pyrazol-4-yl)-5-(4-morpholin-4-yl-cyclohex-1-enyl)-1H-pyrrolo[2,3-b]pyridine], the IC50 in test [1] worked out at 89 nM. As to `CCOCCN(CC)[C@H]1CC[C@@H](c2cnc3[nH]cc(-c4cnn(C)c4)c3c2)CC1` [Compound I-108, (1s,4s)-N-(2-ethoxyethyl)-N-ethyl-4-(3-(1-methyl-1H-pyrazol-4-yl)-1H-pyrrolo[2,3-b]pyridin-5-yl)cyclohexanamine], the IC50 in test [1] is 204 nM.

Consider `Cn1cc(-c2c[nH]c3ncc(C4=CC5CC(O)CC(C4)C5)cc23)cn1` (stereo not drawn) [Compound I-147, 7-(3-(1-methyl-1H-pyrazol-4-yl)-1H-pyrrolo[2,3-b]pyridin-5-yl)bicyclo[3.3.1]non-6-en-3-ol], for which the IC50 in test [1] was above 1000 nM.

As to `Cn1cc(-c2c[nH]c3ncc(C4CCC(=O)CC4)cc23)cn1` [Compound I-20, 4-[3-(1-Methyl-1H-pyrazol-4-yl)-1H-pyrrolo[2,3-b]pyridin-5-yl]-cyclohexanone], the IC50 in test [1] worked out at 229 nM. Still for that read-out and setting: to `CN1CCN([C@H]2CC[C@@H](c3cnc4[nH]cc(-c5cnn(C(F)(F)F)c5)c4c3)CC2)CC1` [Compound I-67, 5-((1s,4s)-4-(4-methylpiperazin-1-yl)cyclohexyl)-3-(1-(trifluoromethyl)-1H-pyrazol-4-yl)-1H-pyrrolo[2,3-b]pyridine] belongs 178 nM; to `Cn1cc(-c2c[nH]c3ncc(C4CCC(C(C)(C)C)CC4)cc23)cn1` (mixture of isomers) [Compound I-4, 5-(4-tert-butylcyclohexyl)-3-(1-methyl-1H-pyrazol-4-yl)-1H-pyrrolo[2,3-b]pyridine], 123 nM; to `CN(C)C1CCC(c2cnc3[nH]cc(-c4cnn(CCN5CCOCC5)c4)c3c2)CC1` (mixture of isomers) [Compound I-56, N,N-dimethyl-4-(3-(1-(2-morpholinoethyl)-1H-pyrazol-4-yl)-1H-pyrrolo[2,3-b]pyridin-5-yl)cyclohexanamine], 71 nM.
